The test system of one data set is depressive symptoms. Conditions: 195 patients, 400 mg intramuscular for 15 days; cited from earlier work.
A further data set relates to Major Depression. In words: Child case studies: oral SAM-e in Major Depression (Children's Depression Inventory, clinical report). The class given is in vivo, human. An excerpt: Two girls were brought in for a consult by a pediatrician and their spouse, a nutritionist. Both parents had studied SAM-e, and preferred “a trial” before traditional anti-depressants.
Case 1. A child (34 kg.) developed increased irritability, boredom, eccentric crying, withdrawal, decreased appetite, middle insomnia, new school performance problems and sadness. They began to discuss death themes and became preoccupied with heaven, despite no new exposures to these topics. They met DSM-IV TR criteria for Major Depression, had no significant stressors in their life, and on the Children's Depression Inventory (CDI) scored a 34.
They were placed on a 200 mg SAM-e enteric-coated tablet each morning, before eating for a week. Subsequently, the dose was raised to 400 mg. […] Improvement began after 4 days on 400 mg. At three weeks, it was increased to 600 mg a day, with rapid and complete resolution of their depressive symptoms in 2 days. […] Their CDI fell to a 4. They have been on this dose for over 6 months.
Case 2. child one (24 kg.) developed new problems with crying, sadness, decreased play, and an inability to be consoled. They made new negative identity comments, i.e., “I'm no good Mommy.” The child was well liked by adults and peers, but felt “no one liked them,” They also began saying they “hated school” even though they were in the top ⅓rd of their class. Their symptoms began 4-5 months after their sibling's MD began. They met DSM-IV TR criteria for Major Depression and on the Children's Depression Inventory scored 29.
Their CDI decreased to 6 and 7. After 3 months, they were “a little sad like before” per their parent, and was increased to 200 mg each am and afternoon with a CDI of 6. They have remained on this dose for over 6 months.
Case 3. A person (86 kg.), unrelated to the girls described above, was diagnosed with Major Depression and Oppositional Defiant Disorder based on DSM-IV TR criteria from a clinical interview with parents and patient. They refused diagnostic scales. Their parents reported a 1½ year history of irritability, boredom, reactivity, decreased interest in all activities but computer games, sadness, excess sleep, fatigue, hopelessness, and trouble concentrating. […] Extensive laboratory testing and family doctor physical exam were negative.
Their mood and function improved to their baseline over 1-2 weeks according to parents, teacher and psychiatrist. Yet they had residual oppositionality. After 2-3 months the youth stopped their SAM-e due to “being sick of all the pills.” They had been taking […] tablets daily. They relapsed over the course of 3 weeks to “½” […] initial baseline depression per patient and parents. Again, they refused quantitative depression scales. Behaviorally, they stopped returning calls, became bored again, and had decreased homework performance with no identifiable new stressors. Restoring the SAM-e to three 400 mg tablets—800 mg per am and 400 after school—restored them to baseline in 5-8 days from parent report confirmed with diagnostic interview. They have remained on this dosing for approximately 22 weeks.

In data set [1] the test system is patients with Major Depression. Conditions: cited from earlier work.
In data set [2] the test system is major depressive disorder. The settings on record: cited from earlier work.
The conditions of data set [3]: infusions of 800 mg, placebo-controlled crossover; cited from earlier work.

SMILES strings stand for the structures. Where “and” joins values, the source holds several entries; their conditions need not be identical. Equal entries are not always repeated. Where two headings read alike, the source gives them in different places.

Consider `C[S+](CC[C@H](N)C(=O)O)C[C@H]1O[C@@H](n2cnc3c(N)ncnc32)[C@H](O)[C@@H]1O` (some centres unmarked) [SAM-e, S-adenosyl methionine], for which the “effect on depressive symptoms” value with depressive symptoms was “remission on both day 7 and 15”. For the same compound, in the data set on Major Depression (Case 1, oral 400 mg), the “response over 3 weeks” value is listed as “modest improvement”. The “time until improvement began” value with Major Depression (Case 1, oral 400 mg) is listed as 4 days. Also, the side effects result in the data set on Major Depression (Case 1, oral 600 mg a day) was “no signs of mania, anxiety, insomnia, diarrhea, abdominal pain or nausea”; in the data set with Major Depression (Case 2, oral 200 mg), “no side effects”; in the data set with Major Depression (Case 3, oral 1800 mg), “slight tremor and slight anxiety”. Besides, the “time to complete resolution of depressive symptoms” value with Major Depression (Case 1, oral 600 mg a day) worked out at 2 days. Further, the “Children's Depression Inventory (CDI) on treatment” value was 4 in the data set with Major Depression (Case 1, oral 600 mg a day, CDI before treatment 34); 6 in the data set on Major Depression (Case 2, oral 200 mg each am and afternoon, after 3 months); 6 and 7 with Major Depression (Case 2, oral 200 mg, CDI before treatment 29). The “time to signs of improvement” value in the data set on Major Depression (Case 2 (person one), oral 200 mg) turned out to be 2 days. The “time until at baseline” value in the data set on Major Depression (Case 2, oral 200 mg) is recorded as 11 days. In addition, in the data set on Major Depression (Case 3, oral 800 mg per am and 400 after school), the “time until restored to baseline after restart” value was in the range of 5 to 8 days. For the same compound, in the data set on Major Depression (Case 3, oral 1400 mg), the “side effects after dose reduction” value is listed as “loss of both side effects”. Also, in the data set on Major Depression (Case 3, oral 1400 mg), the “time until mood and function improved to baseline” value is 1-2 weeks. The “time course of relapse after stopping SAM-e” value in the data set with Major Depression (Case 3, relapse to "½" initial baseline depression) is reported as 3 weeks. For the same compound, in the data set with Major Depression (both parents of Cases 1 and 2, 1200-1400 mg per day), the “self-reported effect on depression” value is “full remission of their depression”. Besides, the “efficacy compared with imipramine” value in data set [1] (SAM-e intramuscular 400 mg/d vs. oral IMI 150 mg/d, 4 weeks) was “did not differ significantly on any efficacy measure”; in data set [1] (intramuscular (400 mg) and oral SAM-e (1600 mg, 6 weeks) in adults), “comparable to 150 mg of imipramine (IMI)”. Besides, in data set [1] (both studies), the “tolerability compared with imipramine” value is listed as “better tolerated than IMI”. Also, the “efficacy in major depressive disorder” value in data set [2] (13 trials vs placebo, 19 trials vs tricyclic antidepressants, more than 1,400 patients) is given as “effective”. In data set [2] (intravenous and intramuscular preparations, 14 double-blind European studies), the “efficacy in major depression versus placebo and tricyclics” value is “more effective than placebo and comparable to imipramine, amitriptyline and clomipramine”. The “EEG / ERP antidepressant effects” value in data set [3] is “effects greater than placebo”.

The values are drawn from patent publication US8263574B2, “Topical formulations for the treatment of depression with S adenosyl methionine” (priority 2004, dated 2012).
